From article PMC9123270 (The Journal of Biological Chemistry, 2022)

How the values were obtained:
Experiment in all cases: Isothermal titration calorimetry
Format in all cases: binding
Conditions in all cases: SD, n = 3
[1] = target: T1, AngaD7L2 (Anopheles gambiae, UniProt A0A1S4GYJ6)
T1 sequence (A0A1S4GYJ6 19-315): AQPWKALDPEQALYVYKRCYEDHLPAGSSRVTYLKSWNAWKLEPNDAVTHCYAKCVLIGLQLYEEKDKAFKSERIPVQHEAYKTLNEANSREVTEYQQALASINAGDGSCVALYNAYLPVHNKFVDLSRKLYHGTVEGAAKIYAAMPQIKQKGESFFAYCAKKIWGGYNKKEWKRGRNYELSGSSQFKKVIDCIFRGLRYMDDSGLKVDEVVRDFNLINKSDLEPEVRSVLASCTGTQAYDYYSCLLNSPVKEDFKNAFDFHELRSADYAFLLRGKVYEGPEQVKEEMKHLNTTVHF

[2] = target: AngaD7L3 (Anopheles gambiae, UniProt A0A1S4HE90)
[3] = target: T2, AngaD7L1 (Anopheles gambiae, UniProt Q7PJ76)
T2 sequence (Q7PJ76 22-311): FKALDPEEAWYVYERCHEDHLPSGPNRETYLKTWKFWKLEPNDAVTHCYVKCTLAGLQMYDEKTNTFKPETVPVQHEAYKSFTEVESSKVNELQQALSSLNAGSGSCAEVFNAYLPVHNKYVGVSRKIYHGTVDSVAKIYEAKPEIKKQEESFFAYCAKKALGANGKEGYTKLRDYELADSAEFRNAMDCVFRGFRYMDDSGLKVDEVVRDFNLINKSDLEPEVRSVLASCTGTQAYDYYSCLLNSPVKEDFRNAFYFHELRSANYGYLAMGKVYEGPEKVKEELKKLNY

AngaD7L3, sequence (A0A1S4HE90 27-354): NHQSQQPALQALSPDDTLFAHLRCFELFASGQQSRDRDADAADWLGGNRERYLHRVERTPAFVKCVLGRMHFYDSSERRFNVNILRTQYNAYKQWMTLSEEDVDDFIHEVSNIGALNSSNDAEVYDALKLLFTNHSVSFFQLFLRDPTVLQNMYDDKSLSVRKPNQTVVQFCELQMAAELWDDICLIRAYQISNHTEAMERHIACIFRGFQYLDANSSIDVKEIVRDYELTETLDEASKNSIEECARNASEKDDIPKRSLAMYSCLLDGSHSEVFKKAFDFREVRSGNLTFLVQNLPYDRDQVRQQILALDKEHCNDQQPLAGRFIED

SMILES | Kd [1] [nM] | Kd [3] [nM] | other results
CCCCC/C=C\C[C@@H](O)/C=C/C=C/C=C\[C@@H](O)CCCC(=O)O [LTB4, leukotriene B4] | 800 |  | 
NCCc1c[nH]c2ccc(O)cc12 [Serotonin, 5-hydroxytryptamine (5-HT)] |  |  | Kd [2]: 20 nM
CCCCC[C@H](O)/C=C/[C@@H]1[C@@H](C/C=C\CCCC(=O)O)[C@H]2CO[C@@H]1C2 [U-46619, 9,11-dideoxy-9alpha,11alpha-methanoepoxyprostaglandin F2alpha (thromboxane A2 analog)] |  | 400 | 
CCCCC/C=C\C\C=C/C=C/C=C/[C@@H](SC[C@H](NC(=O)CC[C@H](N)C(=O)O)C(=O)NCC(=O)O)[C@@H](O)CCCC(=O)O [LTC4, leukotriene C4] |  | 2000 | 
CCCCC/C=C\C\C=C/C=C/C=C/[C@@H](SC[C@H](N)C(=O)NCC(=O)O)[C@@H](O)CCCC(=O)O [LTD4, leukotriene D4] | 1000 |  | 
